# Test results reported in US20180147131A1, “COMPOSITION FOR ORAL CAVITY AND FOOD PRODUCT, OR BEVERAGE” (KABUSHIKI KAISHA SANGI, priority 2015, published 2018).
# Experiment: Remineralization test (artificial incipient caries, contact microradiogram, computer image analysis)
# Set-up: species or system bovine
# Conditions: conclusion from the remineralization tests of Examples and Comparative Examples
# From the text: In order to confirm the remineralizing effect, a previously made artificial incipient caries test sample was used. For the making of the artificial incipient caries test sample, enamel on the labial surface of the crown portion of a bovine front tooth was used. The enamel surface was abraded with #1000, #2400, and #4000 abrasive paper. A window of about 5×3 mm was made with Nail Enamel (Manufactured by Shiseido Company, Limited) at a site to be tested, on the abraded enamel surface, and immersed in a 0.1 M lactate buffer solution (pH 4.8, 3.0 mmM CaCl2, 1.8 mmM KH2PO4, 1.0% CMC) at 37° C. for 4 days to make artificial incipient caries. […]
# The effect of remineralizing the artificial incipient caries site was analyzed using a computer.
# In image analysis by the computer, the amount of the remineralized mineral was calculated based on the formula of Angmer et al. (B. Angmer, D. Carlstrom and J. E. Glas: Studies on Ultrastructure of Dental Enemel IV: The Mineralization of normal Human Enamel, J. Ultrastructure. Res. 8, 12-23, 1963), and the amounts of the mineral lost AZ (% volume mineral·μm) at the control surface and treated surface of each section were calculated according to the method of Damato et al. (F. A. Damato, R. Stang and K. W. Stephen: Effect of Fluoride Concentration on Reminerelization of Carious Enamel: an in vitro pH-Cycling Study, Caries Res, 24, 174-180, 1990). […]
substance,measurement,value
sodium chondroitin sulfate,tooth remineralizing effect (in words),little tooth remineralizing effect
